Results published in PubChem BioAssay AID1919009 (Molecular Pharmacology Branch, DTP, NCI, 2023).

System: K24384-001-R-PDC complex spheroid growth
Assay: Anticancer human tumor K24384-001-R-PDC patient-derived pancreatic adenocarcinoma cell line growth inhibition [AhR]
Details: for IC50: curve of first compound; for viability, T/C: stronger effect = lower value
Method in brief: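 Complex tumor spheroids co-cultured with HUVEC and human MSC stroma; AhR antagonists tested in combination with standard-of-care and investigational agents. Top concentration at or near clinical Cmax (else 10 microM), half-log dilutions; growth expressed as percent test/control.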

[1] = second compound 0.1 µM, first compound 0.0316 µM
[2] = second compound 0.1 µM, first compound 0.1 µM
[3] = second compound 0.1 µM, first compound 0.316 µM
[4] = second compound 0.1 µM, first compound 1 µM
[5] = second compound 0.1 µM, first compound 3.16 µM
[6] = second compound 0.1 µM, first compound 10 µM
[7] = second compound 0.316 µM, first compound 0.0316 µM
[8] = second compound 0.316 µM, first compound 0.1 µM
[9] = second compound 0.316 µM, first compound 0.316 µM
[10] = second compound 0.316 µM, first compound 1 µM
[11] = second compound 0.316 µM, first compound 3.16 µM
[12] = second compound 0.316 µM, first compound 10 µM
[13] = second compound 1 µM, first compound 0.0316 µM
[14] = second compound 1 µM, first compound 0.1 µM
[15] = second compound 1 µM, first compound 0.316 µM
[16] = second compound 1 µM, first compound 1 µM
[17] = second compound 1 µM, first compound 3.16 µM
[18] = second compound 1 µM, first compound 10 µM
[19] = second compound 3.16 µM, first compound 0.0316 µM
[20] = second compound 3.16 µM, first compound 0.1 µM
[21] = second compound 3.16 µM, first compound 0.316 µM
[22] = second compound 3.16 µM, first compound 1 µM
[23] = second compound 3.16 µM, first compound 3.16 µM
[24] = second compound 3.16 µM, first compound 10 µM
[25] = second compound 10 µM, first compound 0.0316 µM
[26] = second compound 10 µM, first compound 0.1 µM
[27] = second compound 10 µM, first compound 0.316 µM
[28] = second compound 10 µM, first compound 1 µM
[29] = second compound 10 µM, first compound 3.16 µM
[30] = second compound 10 µM, first compound 10 µM
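For viability, T/C in this document: percent of DMSO vehicle-treated spheroid viability set as 100%.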

CC1(C)CCC(CN2CCN(c3ccc(C(=O)NS(=O)(=O)c4ccc(NCC5CCOCC5)c([N+](=O)[O-])c4)c(Oc4cnc5[nH]ccc5c4)c3)CC2)=C(c2ccc(Cl)cc2)C1 + Cc1cncc(-c2nc(NCCc3c[nH]c4ccccc34)c3ncn(C(C)C)c3n2)c1
IC50 (second compound 0.1 µM): 6200 nM
IC50 (second compound 0.316 µM): 5760 nM
IC50 (second compound 1 µM): 7200 nM
IC50 (second compound 3.16 µM): 7670 nM
IC50 (second compound 10 µM): < 31.6 nM
viability, T/C [1]: 137%
viability, T/C [2]: 128%
viability, T/C [3]: 129%
viability, T/C [4]: 86.7%
viability, T/C [5]: 101%
viability, T/C [6]: 22%
viability, T/C [7]: 134%
viability, T/C [8]: 140%
viability, T/C [9]: 126%
viability, T/C [10]: 95.5%
viability, T/C [11]: 92.7%
viability, T/C [12]: 18.6%
viability, T/C [13]: 117%
viability, T/C [14]: 157%
viability, T/C [15]: 137%
viability, T/C [16]: 122%
viability, T/C [17]: 119%
viability, T/C [18]: 23.1%
viability, T/C [19]: 116%
viability, T/C [20]: 148%
viability, T/C [21]: 138%
viability, T/C [22]: 119%
viability, T/C [23]: 124%
viability, T/C [24]: 27.5%
viability, T/C [25]: 20.5%
viability, T/C [26]: 21%
viability, T/C [27]: 16.6%
viability, T/C [28]: 19.1%
viability, T/C [29]: 19.9%
viability, T/C [30]: 25%

CCN(c1cc(-c2ccc(CN3CCOCC3)cc2)cc(C(=O)NCc2c(C)cc(C)[nH]c2=O)c1C)C1CCOCC1 + Cc1cncc(-c2nc(NCCc3c[nH]c4ccccc34)c3ncn(C(C)C)c3n2)c1
IC50 (second compound 0.1 µM): > 3000 nM
IC50 (second compound 0.316 µM): > 3000 nM
IC50 (second compound 1 µM): > 3000 nM
IC50 (second compound 3.16 µM): > 3000 nM
IC50 (second compound 10 µM): < 9.49 nM
viability, T/C (second compound 0.1 µM, first compound 0.00949 µM): 118%
viability, T/C (second compound 0.1 µM, first compound 0.03 µM): 126%
viability, T/C (second compound 0.1 µM, first compound 0.0949 µM): 129%
viability, T/C (second compound 0.1 µM, first compound 0.3 µM): 115%
viability, T/C (second compound 0.1 µM, first compound 0.949 µM): 130%
viability, T/C (second compound 0.1 µM, first compound 3 µM): 133%
viability, T/C (second compound 0.316 µM, first compound 0.00949 µM): 138%
viability, T/C (second compound 0.316 µM, first compound 0.03 µM): 139%
viability, T/C (second compound 0.316 µM, first compound 0.0949 µM): 150%
viability, T/C (second compound 0.316 µM, first compound 0.3 µM): 132%
viability, T/C (second compound 0.316 µM, first compound 0.949 µM): 120%
viability, T/C (second compound 0.316 µM, first compound 3 µM): 108%
viability, T/C (second compound 1 µM, first compound 0.00949 µM): 126%
viability, T/C (second compound 1 µM, first compound 0.03 µM): 150%
viability, T/C (second compound 1 µM, first compound 0.0949 µM): 144%
viability, T/C (second compound 1 µM, first compound 0.3 µM): 133%
viability, T/C (second compound 1 µM, first compound 0.949 µM): 128%
viability, T/C (second compound 1 µM, first compound 3 µM): 120%
viability, T/C (second compound 3.16 µM, first compound 0.00949 µM): 116%
viability, T/C (second compound 3.16 µM, first compound 0.03 µM): 101%
viability, T/C (second compound 3.16 µM, first compound 0.0949 µM): 120%
viability, T/C (second compound 3.16 µM, first compound 0.3 µM): 113%
viability, T/C (second compound 3.16 µM, first compound 0.949 µM): 101%
viability, T/C (second compound 3.16 µM, first compound 3 µM): 96.1%
viability, T/C (second compound 10 µM, first compound 0.00949 µM): 18.7%
viability, T/C (second compound 10 µM, first compound 0.03 µM): 17.1%
viability, T/C (second compound 10 µM, first compound 0.0949 µM): 17.3%
viability, T/C (second compound 10 µM, first compound 0.3 µM): 11.9%
viability, T/C (second compound 10 µM, first compound 0.949 µM): 10.1%
viability, T/C (second compound 10 µM, first compound 3 µM): 8.09%

Cn1ncnc1C1c2n[nH]c(=O)c3cc(F)cc(c23)NC1c1ccc(F)cc1 (stereo not given) + Cc1cncc(-c2nc(NCCc3c[nH]c4ccccc34)c3ncn(C(C)C)c3n2)c1
IC50 (second compound 0.1 µM): > 100 nM
IC50 (second compound 0.316 µM): > 100 nM
IC50 (second compound 1 µM): > 100 nM
IC50 (second compound 3.16 µM): > 100 nM
IC50 (second compound 10 µM): < 0.316 nM
viability, T/C (second compound 0.1 µM, first compound 0.000316 µM): 94.1%
viability, T/C (second compound 0.1 µM, first compound 0.001 µM): 93.8%
viability, T/C (second compound 0.1 µM, first compound 0.00316 µM): 99.8%
viability, T/C (second compound 0.1 µM, first compound 0.01 µM): 107%
viability, T/C [1]: 94.7%
viability, T/C [2]: 76.3%
viability, T/C (second compound 0.316 µM, first compound 0.000316 µM): 98.1%
viability, T/C (second compound 0.316 µM, first compound 0.001 µM): 108%
viability, T/C (second compound 0.316 µM, first compound 0.00316 µM): 104%
viability, T/C (second compound 0.316 µM, first compound 0.01 µM): 92.2%
viability, T/C [7]: 99.4%
viability, T/C [8]: 71.8%
viability, T/C (second compound 1 µM, first compound 0.000316 µM): 104%
viability, T/C (second compound 1 µM, first compound 0.001 µM): 110%
viability, T/C (second compound 1 µM, first compound 0.00316 µM): 105%
viability, T/C (second compound 1 µM, first compound 0.01 µM): 101%
viability, T/C [13]: 74.3%
viability, T/C [14]: 66.8%
viability, T/C (second compound 3.16 µM, first compound 0.000316 µM): 101%
viability, T/C (second compound 3.16 µM, first compound 0.001 µM): 86.7%
viability, T/C (second compound 3.16 µM, first compound 0.00316 µM): 104%
viability, T/C (second compound 3.16 µM, first compound 0.01 µM): 64.8%
viability, T/C [19]: 69.8%
viability, T/C [20]: 71.5%
viability, T/C (second compound 10 µM, first compound 0.000316 µM): 15.3%
viability, T/C (second compound 10 µM, first compound 0.001 µM): 12%
viability, T/C (second compound 10 µM, first compound 0.00316 µM): 14.2%
viability, T/C (second compound 10 µM, first compound 0.01 µM): 11.5%
viability, T/C [25]: 12.1%
viability, T/C [26]: 14.5%

NS(=O)(=O)OCC1CC(n2ccc3c(NC4CCc5ccccc54)ncnc32)CC1O (stereo not given) + Cc1cncc(-c2nc(NCCc3c[nH]c4ccccc34)c3ncn(C(C)C)c3n2)c1
IC50 (second compound 0.1 µM): 2330 nM
IC50 (second compound 0.316 µM): 2320 nM
IC50 (second compound 1 µM): 2370 nM
IC50 (second compound 3.16 µM): 1510 nM
IC50 (second compound 10 µM): < 31.6 nM
viability, T/C [1]: 130%
viability, T/C [2]: 150%
viability, T/C [3]: 67.3%
viability, T/C [4]: 107%
viability, T/C [5]: 29.7%
viability, T/C [6]: 29.1%
viability, T/C [7]: 141%
viability, T/C [8]: 161%
viability, T/C [9]: 56.1%
viability, T/C [10]: 124%
viability, T/C [11]: 24%
viability, T/C [12]: 23.6%
viability, T/C [13]: 167%
viability, T/C [14]: 154%
viability, T/C [15]: 62%
viability, T/C [16]: 84.6%
viability, T/C [17]: 27.9%
viability, T/C [18]: 27%
viability, T/C [19]: 132%
viability, T/C [20]: 153%
viability, T/C [21]: 59.8%
viability, T/C [22]: 86.4%
viability, T/C [23]: 20.4%
viability, T/C [24]: 20.6%
viability, T/C [25]: 27.1%
viability, T/C [26]: 15.2%
viability, T/C [27]: 10.5%
viability, T/C [28]: 11.1%
viability, T/C [29]: 5.02%
viability, T/C [30]: 5.87%
